According to publication PMC7934871 (JCI Insight, 2021):
Non-standard residues stand in square brackets, D forms with d. No end group written: not given here. pY = N[C@@H](Cc1ccc(OP(=O)(O)O)cc1)C(=O)O

How the values were obtained:
STAT3-regulated genes = assay: Expression of STAT3 targets in HCT116 cells (Western blotting, qPCR); assay type: cell-based, human
Source text: Figure 3 PS-acet.-STAT3 peptide inhibits STAT3 activity and downregulates the expression of STAT3 targets. (A) Downregulation of STAT3 activity and its downstream target proteins shown in human HCT116 colorectal cancer cells by Western blotting (data represent 1 of the 3 experiments, n = 3). PO-acet.-STAT3 and PS-STAT3-K685R peptides were used in parallel as controls. (B) STAT3 inhibition regulated the expression of proliferation and apoptotic genes, assessed by real-time quantitative PCR. Data present mean ± SD, n = 3 independent experiments, 1-way ANOVA; ***P < 0.005; **P < 0.01. […] For p53 promoter assay, data represent 3 replicates in 3 independent experiments (n = 9). […]
Whole cell lysates or tissue homogenates were prepared by using RIPA lysis buffer (50 mM Tris at pH 7.4, 150 mM NaCl, 1 mM EDTA, 0.5% NP-40, 1 mM NaF, 15% glycerol, and 20 mM β-glycerophosphate). […] Protein amounts were determined by BCA using a Thermo Fisher Scientific kit. […]
Total RNA was extracted from cultured or tumor tissues using RNeasy kit (QIAGEN), according to manufacturer’s instruction. After cDNA synthesis using iScript cDNA Synthesis kit (Bio-Rad), samples were analyzed using pairs of primers specific for CASP9, CASP3, CASP8, BIRC5, BCL2L1, MYC, TP53, VEGF, IL1B, SERPIN3, FGA, CDK4, CCND2, CDKN2A, CDKN2B, GADD45A, mCD274, mMmp9, and mBirc5, as indicated. […]

KPC mouse PDAC cells = assay: KPC mouse PDAC tumor model in C57BL/6 mice; assay type: in vivo; settings: KPC s.c. in C57BL/6 mice, i.v. 1 mg/kg every other day for 18 days (combination 0.5 mg/kg each), n = 5
Description: SD is shown. […] SD is shown.
Mouse care and experimental procedures were performed under pathogen-free conditions in accordance with established institutional guidance and approved IACUC protocols from Research Animal Care Committee of the City of Hope. For s.c. tumor challenge, 5 × 10^6 HCT116 cells were injected into NSG mice from The Jackson Laboratory or animal resource core facility at the City of Hope. After tumors reached an average size of 80~100 mm^3, mice were locally or intravenously treated with 1 mg/kg of PO- or PS-peptides (Anaspec) every day or every other day. Control animals were treated with the equal volume of HBSS (Invitrogen, Thermo Fisher Scientific). Tumor growth was measured by a digital caliper every other day. To study the effects of the modified peptides at protein and gene levels, mice were euthanized 4–6 weeks after tumor injection. B16 melanoma lung metastasis was performed by injecting 0.5 × 10^6 B16 cells into bloodstream of C57BL/6 mice (The Jackson Laboratory). One day after tumor challenge, mice were treated intravenously (retro-orbitally) with 1 mg/kg of PO- or PS-acet.-STAT3, PS-unacet.-STAT3, or PS-STAT3-K685R peptides every other day until the endpoint as indicated. […] Lungs were then analyzed for immune responses by immunostaining followed by confocal imaging. […] Tumor growth was measured by a digital caliper every other day. […]

## PDIPKEEAFGK685(Ac)YCRPESQEHPC-linker-T*C*C*A*T*G*A*G*C*T*T*C*C*T*G*A*T*G*C*T [PS-acet.-STAT3 peptide]
STAT3-regulated genes; HCT116, approximately 1 μM
  expression of STAT3-regulated genes Survivin (BIRC5) and MYC, protein and mRNA: significant downregulation
STAT3-regulated genes; HCT116 and LoVo, real-time quantitative PCR
  expression of STAT3-suppressed apoptotic genes TP53, CASP9, CASP3: upregulated

## PS-Gp130: PS-conjugated Gp130 peptide (amino acids 901–910) with phospho-Tyr905 (MPKS[pY]LPQTV; also: phosphorothioate oligonucleotide conjugate; UniProt P40189 901-910, looked up, fragment)
KPC mouse PDAC cells
  PDAC tumor growth: significantly inhibited
